Values after ≈ are worked out from the molar mass of the structure shown. Values joined by “and” are separate entries in the source; they are usually repeats but may differ in a detail not shown here. Equal values may be shown once.
Legend:
[1] = target: PfFabG (Plasmodium falciparum, UniProt Q8I2S7); assay: biochemical; assay type: biochemical
[2] = test system: L6 cells; assay: Cytotoxicity against L6 cells; assay type: cell-based, rat; conditions: highest test concentration 90 μg/ml
[3] = test system: P. falciparum K1 strain; assay type: cell-based; conditions: Plasmodium falciparum, K1, read-out: IC50 P. falciparum BS
[4] = test system: HepG2:CD81 cells; assay: Toxicity to hepatoma cells; assay type: cell-based; conditions: FC (7-AAD) or IFA (DAPI)
[5] = test system: P. yoelii liver stages (PyGFP sporozoites); assay: Liver stage growth inhibition, flow cytometric; assay type: cell-based; conditions: Plasmodium yoelii, 43 h, read-out: IC50 P. yoelii LS FC
[6] = target: T1, PfFabZ (Plasmodium falciparum, UniProt Q965D7); assay: biochemical; assay type: biochemical
T1 sequence (Q965D7 19-230): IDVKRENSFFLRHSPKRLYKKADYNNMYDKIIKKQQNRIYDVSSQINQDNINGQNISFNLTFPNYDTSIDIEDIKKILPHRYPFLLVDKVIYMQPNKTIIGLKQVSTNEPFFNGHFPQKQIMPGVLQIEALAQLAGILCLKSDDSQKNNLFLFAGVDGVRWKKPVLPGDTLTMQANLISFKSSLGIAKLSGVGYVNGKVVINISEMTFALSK

[7] = target: T2, PfFabI (Plasmodium falciparum, UniProt Q9BH77); assay: biochemical; assay type: biochemical; conditions: for Ki: Ki PfFabI
T2 sequence (Q9BH77 22-432): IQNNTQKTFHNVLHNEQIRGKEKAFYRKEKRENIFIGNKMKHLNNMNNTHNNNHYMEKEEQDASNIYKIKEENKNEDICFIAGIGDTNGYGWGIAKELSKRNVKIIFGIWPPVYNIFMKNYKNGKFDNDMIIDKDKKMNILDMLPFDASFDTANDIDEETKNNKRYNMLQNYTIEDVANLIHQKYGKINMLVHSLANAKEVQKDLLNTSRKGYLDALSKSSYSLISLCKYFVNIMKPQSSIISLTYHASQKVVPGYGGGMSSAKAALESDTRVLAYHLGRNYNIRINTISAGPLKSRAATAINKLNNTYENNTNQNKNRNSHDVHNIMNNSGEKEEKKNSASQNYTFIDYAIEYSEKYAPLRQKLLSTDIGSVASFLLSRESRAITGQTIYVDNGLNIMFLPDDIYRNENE

[8] = target: mycobacterial InhA (MtFabI) enzyme; conditions: read-out: Ki InhA (MtFabI); competitive inhibition; cited from earlier work
[9] = Cytotoxicity against L6 cells; assay type: cell-based, rat; conditions: rat
[10] = test system: P. yoelii liver stages; assay: Liver stage growth inhibition, immunofluorescence analysis; assay type: cell-based; conditions: Plasmodium yoelii, 43 h, read-out: IC50 P. yoelii LS IFA
[11] = test system: L. donovani strain MHOM/ET/67/L82; assay: Leishmanicidal activity, axenic amastigotes; assay type: cell-based; conditions: Leishmania donovani, 72 h, read-out: IC50 Leishmania donovani
[12] = test system: LS development; conditions: cited from earlier work
[13] = test system: late liver phases of P. berghei; conditions: cited from earlier work

Structure (SMILES): CCCCCCCCCC#CCCCCC(=O)O [6-HDA, 6-Hexadecynoic acid]
- IC50 [1]: > 396000 nM

Structure (SMILES): CCCCCCCCCCC#CCCCC(=O)O [5-HDA, 5-Hexadecynoic acid]
- Toxicity against L6 cells (in words) [2]: completely non-toxic
- IC50 [1]: > 396000 nM

Structure (SMILES): CCCCCCCCCCCCCC#CC(=O)O [2-HDA, 2-Hexadecynoic acid]
- IC50 [3]: 10.4 µg/mL (≈ 41.2 µM)
- Toxicity against HepG2:CD81 hepatoma cells (in words) [4]: non-toxic
- IC50 [5]: 15.3 µg/mL (≈ 60.6 µM)
- IC50 [6]: 2300 nM
- Inhibition type PfFabZ ([6]; with respect to the substrate): competitive
- IC50 [7]: 1510 nM
- Ki ([7]; cofactor (NADH) varied): 2580 nM
- Ki ([7]; substrate (crotonyl-CoA) varied): 2890 nM and 2900 nM
- Inhibition type PfFabI ([7]; with respect to crotonyl-CoA and the cofactor NADH): non-competitive
- Ki [8]: 2100 ± 600 nM
- IC50 at 72 h [9]: 85.9 µg/mL (≈ 340 µM)
- IC50 [1]: 13900 nM
- Ki ([1]; Ki PfFabG, cofactor NADPH varied): 6000 nM
- Inhibition type PfFabG ([1]; cofactor NADPH varied): non-competitive
- Inhibition type PfFabG ([1]; substrate acetoacetyl-CoA varied): competitive
- IC50 [10]: 4.88 µg/mL (≈ 19.3 µM)
- IC50 [11]: 4.5 µg/mL (≈ 17.8 µM)

Structure (SMILES): CCCCCCCCCCCCCCCC(=O)O [PA, Palmitic acid, reference compound]
- IC50 [7]: > 390000 nM
- IC50 [1]: > 390000 nM

Structure (SMILES): CCCCCCC#CCCCCCCCC(=O)O [9-HDA, 9-Hexadecynoic acid]
- IC50 [3]: 10.3 µg/mL (≈ 40.8 µM)
- IC50 [1]: > 396000 nM

Structure (SMILES): Oc1c(Cl)cc(Cl)c(Cl)c1Cc1c(O)c(Cl)cc(Cl)c1Cl [hexachlorophene]
- IC50 LS development in vitro [12]: 1.95 µg/mL (≈ 4.79 µM)
- IC50 ([12]; read-out: IC50 LS development in vitro): 4800 nM

Structure (SMILES): Oc1cc(Cl)ccc1Oc1ccc(Cl)cc1Cl [triclosan]
- IC50 late liver phases of P. berghei [13]: 11.4 µg/mL
- IC50 ([13]; read-out: IC50 late liver phases of P. berghei): 39400 nM

— publication PMC2981824 (Bioorganic & medicinal chemistry, 2010)
